# Assays:
# HIV [1] = assay: anti-HIV activity in MT-4 cells (MTT, HIV-induced cytopathic effect), prior to incubation; format: cell-based; details: Human immunodeficiency virus 1, MT4; prior to incubation in subcellular liver fractions; HIV-infected MT-4 cells; read-out: IC50 before
# Description: (§1) The metabolism of the present compounds was studied in subcellular liver fractions (1200×g) of rat, dog or human. The compounds were incubated at a final […] concentration of 30 μM; incubations were performed up to 120 minutes at a final protein concentration equivalent to 1 mg/ml microsomal proteins. Reactions were stopped by the addition of an equal volume (2 ml) of […]. Samples were stored at ≦−18° C. until analysis. […] Table 2 lists IC50 values prior to and after incubation in subcellular liver fractions.
# (§2) A rapid, sensitive and automated assay procedure was used for the in vitro evaluation of anti-HIV agents. […] The viability of both HIV- and mock-infected cells was assessed spectrophotometrically via the in situ reduction of 3-(4,5-dimethylthiazol-2-yl)-2,5-diphenyltetrazolium bromide (MTT). […] The percent protection achieved by the compound in HIV-infected cells was calculated by the following formula:
# (§3) [formula] whereby (ODT)HIV is the optical density measured with a given concentration of the test compound in HIV-infected cells; (ODC)HIV is the optical density measured for the control untreated HIV-infected cells; (ODC)MOCK is the optical density measured for the control untreated mock-infected cells; all optical density values were determined at 540 nm. […]
# HIV [2] = assay: anti-HIV activity (MT-4/MTT) of incubates after incubation in human subcellular liver fractions; format: cell-based; details: after incubation in human subcellular liver fraction, MT-4 cells
# Description: as §1, §2, §3
# HIV [3] = assay: anti-HIV activity (MT-4/MTT) of incubates after incubation in dog subcellular liver fractions; format: cell-based; details: Human immunodeficiency virus 1, MT4, 2 h; after incubation in dog subcellular liver fraction, 120 minutes; MT-4 cells
# Description: as §1, §2, §3
# HIV [4] = assay: anti-HIV activity (MT-4/MTT) of incubates after incubation in rat subcellular liver fractions; format: cell-based; details: Human immunodeficiency virus 1, MT4, 2 h; after incubation in rat subcellular liver fraction, 120 minutes; MT-4 cells
# Description: as §1, §2, §3
melting point [°C],IC50 (HIV [1]) [µM],"IC50 (HIV [2]; Human immunodeficiency virus 1, MT4, 0.5 h, 30 minutes) [µM]","IC50 (HIV [2]; Human immunodeficiency virus 1, MT4, 2 h, 120 minutes) [µM]",IC50 (HIV [3]) [µM],IC50 (HIV [4]) [µM],SMILES
181 to 182,> 1,0.293,0.165,0.138,0.175,CCOCN(c1ccc(C#N)cc1)c1ncc(Br)c(Oc2c(C)cc(C#N)cc2C)n1 [Compound 1]
199 to 200,> 1,–,–,0.809,–,Cc1cc(C#N)cc(C)c1Oc1nc(N(COCCO)c2ccc(C#N)cc2)ncc1Br [Compound 3]

# Source: patent US7034019B2, “Prodrugs of HIV replication inhibiting pyrimidines” (Janssen Pharmaceutica N.V., priority 2000, dated 2006)
